In patent US8609347B2, “Biomarkers for prenatal diagnosis of congenital cytomegalovirus” (priority 2007, dated 2013):

How the values were obtained:
Type in all cases: cell-based, human
integrin β6 = assay: Surface expression of integrin αvβ6 by flow cytometry in CMV-infected HUVECs; conditions: 7 days, SB431542 0.1 to 1 μmol/L, Foscarnet 400 μmol/L, phosphonoacetic acid 100 μg/ml
Protocol: FIG. 20: Induction of integrin αvβ6 expression requires TGF-β signaling and viral DNA replication A: Infected HUVECs were cultured with or without chicken anti-TGF-β polyclonal antibody (20 μg/ml), chicken IgY isotype control antibody (control Ab, 20 μg/ml), the ALK5 kinase inhibitor SB431542 (0.5 μmol/L), or the vehicle DMSO for 7 days, and surface expression of integrin αvβ6 was analyzed by flow cytometric analysis. Typical histograms are shown. Shaded areas represent expression of specific proteins. Lines represent isotype control. Experiments were repeated at least two times. B: Surface expression of integrin αvβ6 was analyzed by flow cytometric analysis at 7 days after infection with or without viral DNA polymerase inhibitors, Foscarnet, and phosphonoacetic acid (PAA). Typical histograms are shown. Shaded areas represent expression of specific proteins. Lines represent isotype control. Experiments were repeated six times. C: Active TGF-β was not produced by infected HUVECs in the presence of viral DNA polymerase inhibitors. Equal numbers of TMLC TGF-β reporter cells and control (cont.) or infected HUVECs were cultured for 16 to 24 hours at 7 days after infection. Relative luciferase activity in cell lysates was defined as the measured activity divided by TMLC baseline activity. Representative data (mean±SE) are from four experiments done in triplicate.
The present example assesses how integrin β6 is induced on CMV infection in HUVECs. It has been reported that TGF-β1 induces de novo synthesis of integrin β6 in normal human keratinocytes (Zambruno et al., J Cell Biol, 129:853-865 (1995)) and strongly up-regulates its expression in primary cultures of human airway epithelial cells (Wang et al., Am J Respir Cell Mol Biol, 15:664-672 (1996)). […] HUVECs were cultured with the filtered conditioned medium for 8 days, and expression of integrin β6 was analyzed. […] It was then determined whether viral late gene expression is required for the up-regulation of integrin β6 in infected cells because the expression was observed only at late times after infection. […]

[1] = system: TGF-β1 activation in CMV-infected HUVECs; assay: TGF-β bioassay: TMLC TGF-β reporter cells co-cultured with CMV-infected HUVECs, luciferase activity; conditions: 7 days after infection; Foscarnet 400 μmol/L or phosphonoacetic acid 100 μg/ml
Text: FIG. 18: Integrin αvβ6-dependent TGF-β1 activation in CMV-infected HUVECs. A: TGF-β1 production by infected HUVECs. Conditioned medium was collected from control (open circles) and infected (filled circles) HUVECs at 1 to 9 days, and TGF-β1 was quantified by enzyme-linked immunosorbent assay. Results are the mean (±SE) of three experiments done in duplicate. Asterisks indicate the amount of TGF-β1 in infected HUVECs as compared with uninfected controls (*P<0.05, **P<0.01). B: Surface expression of TGF-β1 in HUVECs was analyzed by flow cytometry at 3, 7, and 10 days after infection and controls (cont). Typical histograms are shown. Shaded areas represent expression of specific proteins. Lines represent isotype control. Experiments were repeated at least three times. C: Total TGF-β1 was analyzed by flow cytometry using permeabilized cells at 3, 7, and 10 days after infection (inf.) and controls (cont). Left: Typical histograms at 10 days are shown. Shaded areas represent expression of specific proteins. Lines represent isotype control. Right: Results are the mean fluorescence intensity (±SE) of three experiments. Asterisks indicate expression in infected HUVECs as compared with uninfected controls (*P<0.05). D: TGF-β bioassay of active TGF-β produced by infected HUVECs. […] Relative luciferase activity in cell lysates was defined as the measured activity divided by TMLC baseline activity. […]

CEACAM1 = CEACAM1 expression by flow cytometry in HUVEC; conditions: treatment with antioxidants; ratios of mean fluorescence intensity to control cells
Text: FIG. 6A-D: CEACAM protein increases in CMV-infected HUVEC. (A) (Left panel) Flow cytometric analysis of CEACAM1 surface expression. Typical histograms from control and infected human umbilical vein endothelial cells (HUVEC) are shown. Shaded areas represent expression of specific proteins, and lines represent isotype control. (Middle panel) Graphs represent mean fluorescence intensity (mean±SE). Statistically significant differences are indicated (*p<0.05, **p<0.001). (Right panel) VR1814-infected HUVEC increase intracellular CEACAM1 protein. Permeabilized cells were analyzed by flow cytometry. Shaded areas represent expression of specific proteins; lines represent isotype control. (B) CEACAM1 levels in conditioned medium measured by ELISA. Polyclonal and biotinylated CEACAM1-specific IgG (R&D Systems) were used for coating and detection, respectively. CEACAM1 was quantified with peroxidase-conjugated streptavidin. CEACAM1 concentration increased in conditioned medium from infected HUVEC (1 PFU/cell). Graphs represent mean value±SE (n=4). Statistically significant differences are indicated (*p<0.05). (C) Infected HUVEC and controls were immunostained for CEACAM1 and CMV gB. Please Note: cells without viral proteins express CEACAM1. […] Ratios of the mean fluorescence intensity were obtained with control cells.

type IV collagen = assay: Type IV collagen expression (flow cytometry, immunoblot) in CMV-infected HUVECs; conditions: infected HUVECs treated for 7 days
Protocol: FIG. 22: Increased type IV collagen synthesis by CMV infection was blocked by anti-TGF-β and anti-αvβ6 neutralizing antibodies. A: Surface expression of type IV collagen was analyzed by flow cytometric analysis at 10 days after infection. Typical histograms from control (cont.) and infected (inf.) HUVECs are shown. Shaded areas represent expression of specific proteins. Lines represent isotype control. B: The results represent the mean fluorescence intensity of type IV collagen (mean±SE) from three to seven experiments. Asterisks indicate surface expression in infected HUVECs as compared with uninfected controls (*P<0.01). C: Cell lysates from control (cont.) or infected (inf.) HUVECs at 3, 7, and 10 days after infection were fractionated by 8% SDS-PAGE and blotted on nitrocellulose. Filters were incubated with anti-type IV collagen (Col IV) and anti-actin (loading control) antibodies. D: Surface expression of type IV collagen was analyzed by flow cytometric analysis at 7 days without antibody (untreated) or with anti-TGF-β neutralizing antibody (1D11), function-blocking anti-αvβ6 antibody (3G9), or mouse IgG1 isotype control antibody (control Ab). Relative surface expression as expressed by mean fluorescence intensity was normalized for control HUVECs in the same experiment. Results are the mean (±SE) from three experiments. […]

fibronectin = assay: Surface expression of fibronectin in CMV-infected HUVECs; conditions: late times after infection
Text: TGF-β1 is a potent fibrotic factor responsible for the synthesis of ECM, and profibrotic TGF-β1 responses are induced primarily via ALK5/Smad3 signal transduction in normal fibroblasts (Ishida et al., J Invest Dermatol, 126:1733-1744 (2006)). TGF-β1 also potently promotes the synthesis and deposition of ECM in endothelial cells (Pepper, M. S., Cytokine Growth Factor Rev, 8:21-43 (1997)). […] Therefore, it was investigated in the present example whether CMV-activated TGF-β1 could increase ECM production and whether blocking TGF-β1 activation could prevent the effect. […] To evaluate the effect of inhibition of activation of TGF-β1 on CMV-induced profibrotic response, infected cells were treated with anti-TGF-β (1D11) and anti-αvβ6 (3G9) antibodies for 7 days. […] In addition, surface expression of fibronectin was increased at late times after infection, and was reduced by the ALK5 kinase inhibitor.

Smad3 phosphorylation = Smad3 phosphorylation by immunoblot in CMV-infected HUVECs; conditions: 8-day infected HUVECs; 1D11 40 μg/ml, 3G9 80 μg/ml, SB431542 2.5 μmol/L
Protocol: FIG. 19: CMV-infected HUVECs induce Smad3 phosphorylation. Cell lysates from control (cont.) or infected (inf.) HUVECs at 3, 7, and 10 days after infection were fractionated by 10% SDS-PAGE and blotted on nitrocellulose. Phosphorylation of Smad3 (pSmad3) and Smad1/5 (pSmad1/5) was analyzed by immunoblotting using phospho-specific Smad3 and Smad1/5/8 (pSmad1/5) antibodies. Equal loading of the gels was confirmed using Smad2/3, Smad1, and Smad5 protein levels. B: Effects of anti-TGF-β antibody, anti-αvβ6 antibody (3G9), and ALK5 kinase inhibitor on Smad3 phosphorylation. […]
Activated TGF-β1 can bind the type I receptors ALK1 and ALK5, which then phosphorylate the transcriptional activators Smad1/5 and Smad2/3, respectively (ten Dijke, P. and Hill, C. S., Trends Biochem Sci, 29:265-273 (2004)). To determine which of these TGF-β1 signaling pathways is activated in CMV-infected HUVECs, Smad1/5 and Smad3 phosphorylation was analyzed by immunoblotting with antibodies specific to Smads and their phosphorylated forms (FIG. 19A). Smad3 phosphorylation was strongly detected in 7- and 10-day-infected cells. […] Phosphorylated Smad1/5 was also weakly detected in the control. […]

SMILES	induction of integrin β6 (integrin β6)	induction of TMLC luciferase activity (active TGF-β) [1]	CEACAM1 expression (CEACAM1)	further results
O=C(O)P(=O)(O)O [Foscarnet]	blocked induction of integrin β6	strongly suppressed	–	–
OCCS [β-mercaptoethanol]	–	–	reduce CEACAM1 expression	–
C[S+](C)[O-] [DMSO, dimethyl sulfoxide]	–	–	reduce CEACAM1 expression	–
O[C@H](CS)[C@H](O)CS (racemic) [DTT, dithiothreitol]	–	–	reduce CEACAM1 expression	–
NC(=O)c1ccc(-c2nc(-c3ccc4c(c3)OCO4)c(-c3ccccn3)[nH]2)cc1 [SB431542]	nearly abolish it at high concentrations	–	–	surface expression of type IV collagen (type IV collagen): inhibitory effect; surface expression of fibronectin (fibronectin): reduced; Smad3 phosphorylation (Smad3 phosphorylation): prevented Smad3 phosphorylation
O=C(O)CP(=O)(O)O [phosphonoacetic acid]	blocked induction of integrin β6	strongly suppressed	–	–
